Literature values as cited in patent publication US9169254B2, “Spiroimidazolone derivative” (Chugai Seiyaku Kabushiki Kaisha, priority 2009, dated 2015).
Read-outs that look alike come from different tables or passages of the source.

Columns and labels:
[1] = subcutaneous administration, cited from earlier work
[2] = subcutaneous administration, cited from earlier work; remark: listed apart in the source

Molecule	increase of the spine bone mineral density (BMD) ([1]; in one year) [%]	decrease of the risk of nonvertebral fracture ([2]; in two years) [%]	decrease of the risk of vertebral fracture ([2]; in two years) [%]	increase of the spine bone mineral density (BMD) ([1]; in 18 months) [%]	decrease of the risk of vertebral fracture ([2]; 18-month study) [%]
CC[C@H](C)[C@H](NC(=O)[C@H](CCC(=O)O)NC(=O)[C@H](CO)NC(=O)[C@@H](NC(=O)[C@@H](N)CO)C(C)C)C(=O)N[C@@H](CCC(N)=O)C(=O)N[C@@H](CC(C)C)C(=O)N[C@@H](CCSC)C(=O)N[C@@H](Cc1cnc[nH]1)C(=O)N[C@@H](CC(N)=O)C(=O)N[C@@H](CC(C)C)C(=O)NCC(=O)N[C@@H](CCCCN)C(=O)N[C@@H](Cc1cnc[nH]1)C(=O)N[C@@H](CC(C)C)C(=O)N[C@@H](CC(N)=O)C(=O)N[C@@H](CO)C(=O)N[C@@H](CCSC)C(=O)N[C@@H](CCC(=O)O)C(=O)N[C@@H](CCCN=C(N)N)C(=O)N[C@H](C(=O)N[C@@H](CCC(=O)O)C(=O)N[C@@H](Cc1c[nH]c2ccccc12)C(=O)N[C@@H](CC(C)C)C(=O)N[C@@H](CCCN=C(N)N)C(=O)N[C@@H](CCCCN)C(=O)N[C@@H](CCCCN)C(=O)N[C@@H](CC(C)C)C(=O)N[C@@H](CCC(N)=O)C(=O)N[C@@H](CC(=O)O)C(=O)N[C@H](C(=O)N[C@@H](Cc1cnc[nH]1)C(=O)N[C@@H](CC(N)=O)C(=O)N[C@@H](Cc1ccccc1)C(=O)O)C(C)C)C(C)C [human PTH(1-34), teriparatide]	8	55	65	–	–
human PTH(1-84): "Native human parathyroid hormone is a polypeptide consisting of 84 amino acids" (protein, UniProt P01270 32-115, looked up, Parathyroid hormone) Parathyroid hormone: SVSEIQLMHNLGKHLNSMERVEWLRKKLQDVHNFVALGAPLAPRDAGSQRPRKKEDNVLVESHEKSLGEADKADVNVLTKAKSQ	–	–	–	6.9	58
